Results on one compound are retold here after US6432924B1, “Method of treating disorders characterized by overexpression of cytidine deaminase or deoxycytidine deaminase” (East Carolina University, priority 1993, dated 2002).

The structures appear in SMILES notation.

The test system of one assay is HT-29SF^CD cells. Briefly: Transwell culture, 5mAZC exposure of cytidine deaminase overexpressing cells. The conditions noted are these: for Number of viable cells HT-29SF^CD: quintuplicate, Transwell. Format: cell-based, human. How it is done:
(§1) HT-29SF^CD cells are a subline of HT-29SF human colonic adenocarcinoma cells that were selected for overexpression of cytidine deaminase. HT-29SF cells were plated in the bottom compartment, and HT-29SF^CD cells in the top compartment of a “Transwell” culture dish (1,000 cells each). A semipermeable membrane separates the two compartments of the Transwell, such that any drug administered in the tissue culture media bathe both compartments equally. 5-mAZC was administered continuously for 72 hrs. at the indicated concentrations. The numbers in the x-axis indicate the concentration (in μM) at which 5mAZC was administered continuously for 72 hours. The numbers on the y-axis indicate the number of surviving cells. The circular (●) data points represent the dose response for the HT-29SF^CD cells. The square (▪) data points represent the dose response for the HT-29SF cells.
HT-29SF human adenocarcinoma cells naturally express a high level of cytidine deaminase (CD). HT-29SF^CD is a subline of the HT-29SF line that express even higher CD levels than normal (about 5.4 times the expression level of HT-29SF cells). In order to see whether cells that overexpress cytidine deaminase are more sensitive to 5mAZC than other cells, HT-29SF^CD cells were plated in the top compartment of a Transwell culture dish, while HT-29SF cells were placed in the bottom compartment (1000 cells each). A semipermeable membrane separated the two compartments of the Transwell, such that drugs administered in the tissue culture media bathe both compartments equally. 5mAZC was administered continuously for 72 hrs at concentrations ranging from 0 μM to 50 μM. The results of this experiment confirm the idea that cells that highly overexpress CD are sensitive to 5mAZC.
Based upon the results obtained in example 1 above, a dose of 50 μM 5mAZC was selected for more in-depth analysis. Two experiments were performed, in quintuplicate, in the same Transwell dishes, containing the HT-29SF cells and the HT-29SF^CD cells in compartments separated only by a membrane permeable to 5mAZC.

Assay [1] has as its system HT-29SF cells. Briefly: Transwell culture, 5mAZC exposure of parent cells. It is filed as cell-based, human. Conditions: quintuplicate. How it is done: as §1
HT-29SF human adenocarcinoma cells naturally express a high level of cytidine deaminase (CD). HT-29SF^CD is a subline of the HT-29SF line that express even higher CD levels than normal (about 5.4 times the expression level of HT-29SF cells). In order to see whether cells that overexpress cytidine deaminase are more sensitive to 5mAZC than other cells, HT-29SF^CD cells were plated in the top compartment of a Transwell culture dish, while HT-29SF cells were placed in the bottom compartment (1000 cells each). […]

In assay [2] the test system is HT-29SF^CD (cytidine deaminase producing)cells. Briefly: Human tumor xenograft model, HT-29SF^CD tumor (right scapular region). Conditions: 150 mg/kg twice daily intraperitoneal, 5 weeks, N=2. It is filed as in vivo, Balb/C nu/nu mice. The procedure: (§2) One of these mice received twice daily intraperitoneal doses of 150 mg/kg of 5mAZC. The other mouse received saline only. This treatment continued for 5 weeks, at which time the animals were euthanized and the solid tumors were dissected free and weighed.
(In general: Xenograft models place foreign cells or tissue in a host animal.)

Assay [3] relates to HT-29SF (non cytidine deaminase producing)cells. The experiment in a line: Human tumor xenograft model, HT-29SF tumor (left scapular region). Format: in vivo, Balb/C nu/nu mice. Conditions: 150 mg/kg twice daily intraperitoneal, 5 weeks, N=2. How it is done: as §2
For assay [4], the system named is HT-29SF cells. The experiment in a line: HT-29SF subcutaneous xenograft, tumor volume on Day 29. Format: in vivo, BALB/c nude mice. How it is done:
In another experiment, thirty BALB/c nude mice received subcutaneous injections of 5×10^6 HT-29SF cells. Twelve of the animals received 600 mg/kg/day 5mAZC in the flank for 28 days. Eighteen animals received saline injections on the same schedule. On Day 29, the animals were sacrificed and the tumor volume was quantified by standard methods. The average tumor volume for the control group receiving saline was 509±292 mm . […] The results of Examples 2 and 3 show clearly that 5mAZC is activated in vitro and in vivo into molecular species exclusively toxic to tumor cells that overexpress cytidine deaminase.

Where [5] appears, read: Experiment 1, 50 μM 5mAZC, 1000 cells plated.

For `Cc1cn([C@H]2C[C@H](N=[N+]=[N-])[C@@H](CO)O2)c(=O)nc1N` [5mAZC, 5-methyl-2′,3′-dideoxy-3′-azidocytidine], the “Number of viable cells HT-29SF^CD” value in the assay on HT-29SF^CD cells (setting [5]) is listed as 33.8 ± 17.1; in the assay with HT-29SF^CD cells (second experiment (head prints Example 2), 50 μM 5mAZC) it was 45.4 ± 15.6. Moreover, the “sensitivity of cells that highly overexpress CD to 5mAZC (number of surviving cells, FIG. 1)” value in the assay with HT-29SF^CD cells (HT-29SF^CD cells, 0 μM to 50 μM continuously for 72 hrs) is reported as “sensitive”. The “Number of viable cells HT-29SF” value with HT-29SF cells [1] (setting [5]) is listed as 797 ± 68; in the assay on HT-29SF cells [1] (second experiment, 50 μM 5mAZC), 867.2 ± 29.4. For the same compound, the “tumor weight HT-29SF^CD+5mAZC” value in assay [2] amounted to 0.22 g. Also, the “tumor weight HT-29SF+5mAZC” value in assay [3] was 1.02 ± 0.13 g. The “average reduction in size (tumor volume vs saline control)” value in the assay with HT-29SF cells [4] (600 mg/kg/day for 28 days) stood at 46%. For the same compound, the average tumor volume with HT-29SF cells [4] (600 mg/kg/day in the flank for 28 days, saline control 509±292) amounted to 273±97 mm^3.
